{"source": "paper PMC6150365", "about": "“Simultaneous Determination of Seven Components in Rat Plasma by the UPLC-MS/MS Method and Application of Pharmacokinetic Studies to SimiaoYong’an Decoction” (Molecules : A Journal of Synthetic Chemistry and Natural …, 2017)", "assay": "Pharmacokinetic study in rats after oral administration of SYD extract and its single and combined TCM extracts (UPLC-MS/MS of plasma)", "conditions": "male, Sprague-Dawley, rat, plasma, po, n = 6; for AUC(0-t) / AUC(0-inf) / Cmax / MRT last / MRT inf / Tmax: rat plasma; for MRT last: MRT(0–t); for MRT inf: MRT(0–∞)", "key": {"[1]": {"conditions": "2.49 g/kg, oral SN extract 2.49 g/kg"}, "[2]": {"conditions": "3.38 g/kg extract (6.67 g/kg as herbs), oral SN + GU extract"}, "[3]": {"conditions": "3.38 g·kg^−1 (extract), oral SN + GU extract"}, "[4]": {"conditions": "3.98 g/kg extract (8.33 g/kg as herbs), oral SN + AS extract"}, "[5]": {"conditions": "4.5 g·kg^−1 (extract), oral LJ + SN extract"}, "[6]": {"conditions": "4.5 g·kg^−1 extract, oral LJ + SN extract"}, "[7]": {"conditions": "4.73 g/kg, oral LJ + SN + GU extract 4.73 g/kg"}, "[8]": {"conditions": "5.43 g/kg, oral LJ + SN + AS extract 5.43 g/kg"}, "[9]": {"conditions": "8.25 g/kg, oral SYD extract 8.25 g/kg"}}}
{"smiles": "C[C@]1(OC(=O)/C=C/c2ccccc2)C[C@@H](O)[C@]2(O)C=CO[C@@H](O[C@@H]3O[C@H](CO)[C@@H](O)[C@H](O)[C@H]3O)[C@@H]21", "note": "[Harpagoside, harpagoside]", "values": [{"measurement": "AUC(0-t)", "setting": "[1]", "result": "310 ± 110", "unit": "ng·h/mL"}, {"measurement": "AUC(0-inf)", "setting": "[1]", "result": "320 ± 110", "unit": "ng·h/mL"}, {"measurement": "Cmax", "setting": "[1]", "result": "110 ± 50", "unit": "ng/mL"}, {"measurement": "MRT last", "setting": "[1]", "result": "4.75 ± 1.17", "unit": "h"}, {"measurement": "MRT inf", "setting": "[1]", "result": "5.69 ± 3.19", "unit": "h"}, {"measurement": "Tmax", "setting": "[1]", "result": "1.08 ± 0.47", "unit": "h"}, {"measurement": "half-life", "setting": "2.49 g/kg, t1/2, rat plasma, oral SN extract 2.49 g/kg", "result": "3.34 ± 3.36", "unit": "h"}, {"measurement": "MRT last", "setting": "[2]", "result": "5.72 ± 2.55", "unit": "h"}, {"measurement": "MRT inf", "setting": "[2]", "result": "47.5 ± 78.2", "unit": "h"}, {"measurement": "Tmax", "setting": "[2]", "result": "1.25 ± 0.59", "unit": "h"}, {"measurement": "half-life", "setting": "3.38 g/kg extract (6.67 g/kg as herbs), t1/2, rat plasma, oral SN + GU extract", "result": "18.3 ± 6.9", "unit": "h"}, {"measurement": "AUC(0-t)", "setting": "[3]", "result": "80 ± 10", "unit": "ng·h/mL"}, {"measurement": "AUC(0-inf)", "setting": "[3]", "result": "110 ± 80", "unit": "ng·h/mL"}, {"measurement": "Cmax", "setting": "3.38 g·kg^−1 extract, oral SN + GU extract", "result": "50 ± 10", "unit": "ng/mL"}, {"measurement": "AUC(0-t)", "setting": "[4]", "result": "100 ± 70", "unit": "ng·h/mL"}, {"measurement": "AUC(0-inf)", "setting": "[4]", "result": "130 ± 90", "unit": "ng·h/mL"}, {"measurement": "MRT last", "setting": "[4]", "result": "4.51 ± 2.04", "unit": "h"}, {"measurement": "MRT inf", "setting": "[4]", "result": "41.9 ± 67.3", "unit": "h"}, {"measurement": "half-life", "setting": "3.98 g·kg^−1, t1/2, rat plasma, oral SN + AS extract", "result": "16.6 ± 1.4", "unit": "h"}, {"measurement": "Cmax", "setting": "3.98 g·kg^−1 extract, oral SN + AS extract", "result": "70 ± 10", "unit": "ng/mL"}, {"measurement": "MRT last", "setting": "[5]", "result": "5.32 ± 1.39", "unit": "h"}, {"measurement": "MRT inf", "setting": "[5]", "result": "46.3 ± 70.7", "unit": "h"}, {"measurement": "half-life", "setting": "4.5 g·kg^−1 (extract), t1/2, rat plasma, oral LJ + SN extract", "result": "15.8 ± 1.19", "unit": "h"}, {"measurement": "AUC(0-t)", "setting": "[6]", "result": "60 ± 10", "unit": "ng·h/mL"}, {"measurement": "AUC(0-inf)", "setting": "[6]", "result": "90 ± 10", "unit": "ng·h/mL"}, {"measurement": "Cmax", "setting": "[6]", "result": 30, "unit": "ng/mL"}, {"measurement": "AUC(0-t)", "setting": "[7]", "result": "150 ± 70", "unit": "ng·h/mL"}, {"measurement": "AUC(0-inf)", "setting": "[7]", "result": "190 ± 110", "unit": "ng·h/mL"}, {"measurement": "Cmax", "setting": "[7]", "result": 80, "unit": "ng/mL"}, {"measurement": "MRT last", "setting": "[7]", "result": "3.17 ± 0.59", "unit": "h"}, {"measurement": "MRT inf", "setting": "[7]", "result": "22.6 ± 31.1", "unit": "h"}, {"measurement": "Tmax", "setting": "[7]", "result": "1.79 ± 0.51", "unit": "h"}, {"measurement": "half-life", "setting": "4.73 g/kg, t1/2, rat plasma, oral LJ + SN + GU extract 4.73 g/kg", "result": "13.3 ± 4.59", "unit": "h"}, {"measurement": "AUC(0-t)", "setting": "[8]", "result": "110 ± 80", "unit": "ng·h/mL"}, {"measurement": "AUC(0-inf)", "setting": "[8]", "result": "110 ± 80", "unit": "ng·h/mL"}, {"measurement": "Cmax", "setting": "[8]", "result": 50, "unit": "ng/mL"}, {"measurement": "MRT last", "setting": "[8]", "result": "3.16 ± 0.68", "unit": "h"}, {"measurement": "MRT inf", "setting": "[8]", "result": "13 ± 19.9", "unit": "h"}, {"measurement": "Tmax", "setting": "[8]", "result": "1.63 ± 0.49", "unit": "h"}, {"measurement": "half-life", "setting": "5.43 g/kg, t1/2, rat plasma, oral LJ + SN + AS extract 5.43 g/kg", "result": "9.79 ± 5.03", "unit": "h"}, {"measurement": "AUC(0-t)", "setting": "[9]", "result": "120 ± 90", "unit": "ng·h/mL"}, {"measurement": "AUC(0-inf)", "setting": "[9]", "result": "140 ± 90", "unit": "ng·h/mL"}, {"measurement": "Cmax", "setting": "[9]", "result": "70 ± 70", "unit": "ng/mL"}, {"measurement": "MRT last", "setting": "[9]", "result": "3.92 ± 1.31", "unit": "h"}, {"measurement": "MRT inf", "setting": "[9]", "result": "19.8 ± 8.74", "unit": "h"}, {"measurement": "Tmax", "setting": "[9]", "result": 1.5, "unit": "h"}, {"measurement": "half-life", "setting": "8.25 g/kg, t1/2, rat plasma, oral SYD extract 8.25 g/kg", "result": "11.2 ± 2.64", "unit": "h"}, {"measurement": "Tmax", "setting": "[…], oral SN + AS + GU extract […]", "result": "0.83 ± 0.13", "unit": "h"}, {"measurement": "half-life", "setting": "[…], t1/2, rat plasma, oral SN + AS + GU extract […]", "result": "15.5 ± 1.54", "unit": "h"}]}
